Experimental data: patent US20230348462A1, “IMIDAZO[4,5-C]QUINOLINE COMPOUNDS AND THEIR USE AS ATM KINASE INHIBITORS” (Deutsches Krebsforschungszentrum, priority 2020, published 2023)

How the values were obtained:
[1] = tested on: kras^G12D; mycOE; p53^−/− murine pancreatic cancer cells (KMP53); experiment: KMP53 cell assay (XTT cell viability with Etoposide); assay type: cell-based; details: Mus musculus, 4 h pre-treatment, then 300 nM Etoposide, 46 h
Text: (§1) A selection of compounds was screened in a cellular assay system in two different cancer cell lines. Therefore, the cells were challenged with a generally non-cytotoxic concentration of Etoposid to induce DNA double strand breaks and the activation of the ATM pathway. The cells were further treated with different concentrations of the final compounds and viability of the cells was quantified using a standard XTT cell viability protocol. The principle of this assay lies in the fact that only alive and thus metabolically active cells are able to catalyze the reduction of XTT ((2,3-bis-(2-methoxy-4-nitro-5-sulfophenyl)-2H-tetrazolium-5-carboxanilide) by NADH from mitochondria, into formazan. The formazan product can be then detected using an absorbance-based microplate reader. The absorbance intensity measured in each well correlates to cell viability.
(§2) In brief, kras^G12D; mycOE; p53^−/− murine pancreatic cancer cells (KMP53) and Panc-1 human pancreatic ductal carcinoma cells were seeded in 96-well plates and left to attach overnight. The following day, cells were treated with serial dilutions of compound or DMSO in triplicates. The cells were first pre-treated for 4 hours with inhibitor and then 300 nM of Etoposide was added to each well. Cells were then grown under normal conditions (37° C., 95% air, 5% CO2) for 46 h. Following the incubation period, XTT solution was added to the cells containing 1 mg/ml XTT and 25 μM phenazine methosulfate (PMS) diluted in full culture medium. Cells were incubated in normal conditions for two more hours. For the determination of cell viability, absorbance at 450 nm was measured for each well. Absorbance values were then normalized to DMSO control and expressed as percentages of viability. Using software GraphPad Prism, the values were fitted in a nonlinear response curve and the IC50 values were calculated.

Solubility in DMSO = assay type: physicochemical; details: organic solvent or mixture, free base
Procedure: In a screw-top reaction vial, 41 mg (25) (0.1 mmol) and 1 mg tBu3P Pd G3 (1.5 mol %) were suspended in 2.4 ml degassed dioxane under argon atmosphere. Subsequently were added 40 mg (27) (0.14 mmol) as solution in dioxane and 0.6 ml of an aqueous 0.5M K3PO4 solution (0.3 mmol) via syringe. The reaction vial was sealed and heated to 50° C. heating block temperature for about 2 hours. TLC indicated complete conversion at that point and the reaction was quenched by dilution with EtOAc and brine. The phases were separated and the aqueous phase was further extracted with EtOAc (3×15 ml) and subsequently with DCM (4×15 ml). The combined extracts were washed with brine, dried and evaporated. The residue was purified via flash chromatography (DCM/MeOH+2N NH3 2-10%) to obtain 36 mg (74%) of the title substance as white solid. […] Therefore, it was converted to the HCl salt by dissolution in DCM/MeOH, acidification with HCl in EtOH and subsequent concentration of the solution. […]

human ATM = human ATM (Homo sapiens (Human), UniProt Q13315); experiment: Enzymatic ATM assay (RBC FRET enzyme assay); assay type: biochemical; details: substrate p53, 5-point dilution starting at 10 μM
Procedure: The inhibitory activity on the isolated ATM kinase was determined by a commercial supplier (Reaction Biology Corp., PA, US) using an activity based FRET assay. Compounds were therefore first pre-incubated with human ATM before substrate (p53) and ATP were added to initiate the phosphorylation reaction. After a given time, the kinase reaction was stopped and the amount of phosphorylated substrate was quantified using standard FRET detection methods. […] Detailed assay conditions and parameters can be requested from the commercial supplier.

[2] = tested on: Panc-1 human pancreatic ductal carcinoma cells; experiment: Panc1 cell assay (XTT cell viability with Etoposide); assay type: cell-based; details: 4 h pre-treatment, then 300 nM Etoposide, 46 h
Text: as §1, §2

human ATM, sequence (Q13315 whole entry): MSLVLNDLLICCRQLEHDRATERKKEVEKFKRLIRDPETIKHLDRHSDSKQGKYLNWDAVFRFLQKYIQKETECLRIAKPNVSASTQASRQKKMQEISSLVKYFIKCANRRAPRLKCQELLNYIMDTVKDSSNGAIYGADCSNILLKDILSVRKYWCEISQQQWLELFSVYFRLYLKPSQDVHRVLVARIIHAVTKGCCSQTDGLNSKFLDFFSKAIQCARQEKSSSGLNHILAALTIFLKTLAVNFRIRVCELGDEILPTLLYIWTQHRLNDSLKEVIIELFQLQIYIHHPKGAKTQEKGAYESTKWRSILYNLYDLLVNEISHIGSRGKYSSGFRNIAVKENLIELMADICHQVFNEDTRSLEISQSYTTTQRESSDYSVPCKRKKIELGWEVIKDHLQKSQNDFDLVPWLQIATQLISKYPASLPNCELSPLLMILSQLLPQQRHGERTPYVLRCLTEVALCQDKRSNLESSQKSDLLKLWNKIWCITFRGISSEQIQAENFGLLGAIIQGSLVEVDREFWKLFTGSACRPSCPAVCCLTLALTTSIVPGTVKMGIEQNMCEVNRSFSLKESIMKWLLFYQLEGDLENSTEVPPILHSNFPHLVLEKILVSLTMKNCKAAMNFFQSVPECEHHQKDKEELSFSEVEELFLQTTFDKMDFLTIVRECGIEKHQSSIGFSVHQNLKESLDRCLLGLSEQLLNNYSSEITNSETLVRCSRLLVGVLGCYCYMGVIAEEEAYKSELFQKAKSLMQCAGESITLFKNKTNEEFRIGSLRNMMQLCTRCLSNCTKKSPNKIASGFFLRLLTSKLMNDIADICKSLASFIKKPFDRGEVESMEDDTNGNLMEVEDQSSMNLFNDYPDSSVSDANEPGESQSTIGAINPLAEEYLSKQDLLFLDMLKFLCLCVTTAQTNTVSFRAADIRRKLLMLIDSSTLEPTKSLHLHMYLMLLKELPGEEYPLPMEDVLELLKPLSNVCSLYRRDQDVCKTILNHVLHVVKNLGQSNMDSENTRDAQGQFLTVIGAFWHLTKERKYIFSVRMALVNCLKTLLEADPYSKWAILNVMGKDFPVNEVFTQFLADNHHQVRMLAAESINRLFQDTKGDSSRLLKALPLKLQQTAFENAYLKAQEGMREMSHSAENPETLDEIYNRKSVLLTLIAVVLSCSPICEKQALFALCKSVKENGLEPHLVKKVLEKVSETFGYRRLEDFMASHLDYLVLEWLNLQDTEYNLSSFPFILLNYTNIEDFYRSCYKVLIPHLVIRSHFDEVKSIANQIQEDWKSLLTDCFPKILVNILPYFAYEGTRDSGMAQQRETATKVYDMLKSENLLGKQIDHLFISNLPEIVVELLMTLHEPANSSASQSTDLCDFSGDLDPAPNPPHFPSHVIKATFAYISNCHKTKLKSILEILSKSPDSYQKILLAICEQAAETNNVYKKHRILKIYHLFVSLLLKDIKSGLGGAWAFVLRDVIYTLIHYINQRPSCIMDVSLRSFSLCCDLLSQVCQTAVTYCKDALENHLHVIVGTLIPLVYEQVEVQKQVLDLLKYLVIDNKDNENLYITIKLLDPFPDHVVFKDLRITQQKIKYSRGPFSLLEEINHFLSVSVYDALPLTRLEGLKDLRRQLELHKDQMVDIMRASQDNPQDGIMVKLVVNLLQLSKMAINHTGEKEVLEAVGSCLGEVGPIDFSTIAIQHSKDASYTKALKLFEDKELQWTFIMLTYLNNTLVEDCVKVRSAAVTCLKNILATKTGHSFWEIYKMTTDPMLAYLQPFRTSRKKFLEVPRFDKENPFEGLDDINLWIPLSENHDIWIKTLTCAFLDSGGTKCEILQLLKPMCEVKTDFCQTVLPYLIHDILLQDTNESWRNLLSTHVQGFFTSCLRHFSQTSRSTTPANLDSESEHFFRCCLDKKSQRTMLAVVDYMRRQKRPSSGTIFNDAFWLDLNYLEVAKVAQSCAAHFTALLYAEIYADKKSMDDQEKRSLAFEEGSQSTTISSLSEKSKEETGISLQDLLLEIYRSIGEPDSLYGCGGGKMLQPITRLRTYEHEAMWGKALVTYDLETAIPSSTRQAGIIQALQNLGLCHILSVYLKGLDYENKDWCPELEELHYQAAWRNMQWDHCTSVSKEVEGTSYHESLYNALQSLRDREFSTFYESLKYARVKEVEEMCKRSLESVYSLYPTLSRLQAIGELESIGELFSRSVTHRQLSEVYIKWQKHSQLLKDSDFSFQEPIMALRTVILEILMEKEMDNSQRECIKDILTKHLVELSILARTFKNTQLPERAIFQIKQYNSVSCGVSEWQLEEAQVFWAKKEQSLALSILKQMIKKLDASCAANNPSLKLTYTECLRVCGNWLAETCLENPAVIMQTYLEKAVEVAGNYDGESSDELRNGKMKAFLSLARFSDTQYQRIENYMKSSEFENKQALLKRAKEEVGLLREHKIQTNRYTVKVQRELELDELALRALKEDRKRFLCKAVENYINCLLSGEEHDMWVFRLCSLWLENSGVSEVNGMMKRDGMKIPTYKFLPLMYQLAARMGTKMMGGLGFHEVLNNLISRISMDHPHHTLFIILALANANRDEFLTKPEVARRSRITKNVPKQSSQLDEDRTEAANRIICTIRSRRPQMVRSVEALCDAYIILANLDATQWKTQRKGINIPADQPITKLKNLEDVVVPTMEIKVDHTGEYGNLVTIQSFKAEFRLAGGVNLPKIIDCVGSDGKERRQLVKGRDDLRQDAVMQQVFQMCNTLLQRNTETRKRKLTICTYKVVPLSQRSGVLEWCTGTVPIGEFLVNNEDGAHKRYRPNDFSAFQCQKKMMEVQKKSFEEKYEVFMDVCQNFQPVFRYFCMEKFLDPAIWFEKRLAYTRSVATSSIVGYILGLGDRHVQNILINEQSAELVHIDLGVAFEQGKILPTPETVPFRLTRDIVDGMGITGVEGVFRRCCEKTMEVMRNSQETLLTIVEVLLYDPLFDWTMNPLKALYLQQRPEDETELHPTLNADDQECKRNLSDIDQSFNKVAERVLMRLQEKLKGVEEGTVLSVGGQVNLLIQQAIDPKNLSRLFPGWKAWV

CN(C)CCNC(=O)Nc1ccc(-c2ccc3ncc4c(c3c2)n(C2CCOCC2)c(=O)n4C)cn1 [Ex. 7, 1-(2-(Dimethylamino)ethyl)-3-(5-(3-methyl-2-oxo-1-(tetrahydro-2H-pyran-4-yl)-2,3-dihydro-H-imidazo[4,5-c]quinolin-8-yl)pyridin-2-yl)urea]
IC50 [1]: 2.5 µM | solubility (Solubility in DMSO): < 10 mM | IC50 (human ATM): < 0.001 µM

COCCn1c(=O)n(C)c2cnc3ccc(-c4ccc(NC(=O)NCCN(C)C)c(F)c4)cc3c21 [Ex. 28, 1-(2-(Dimethylamino)ethyl)-3-(2-fluoro-4-(1-(2-methoxyethyl)-3-methyl-2-oxo-2,3-dihydro-1H-imidazo[4,5-c]quinolin-8-yl)phenyl)urea]
IC50 [1]: 2 µM | IC50 (human ATM): < 0.001 µM | IC50 [2]: 0.001 µM
